30 compounds from patent US20260167615A1, “COMPOUNDS AND COMPOSITIONS AS GPR52 MODULATORS” (Neurocrine Biosciences, Inc., priority 2022, published 2026) can be followed below.

This assay addresses recombinant human GPR52 (Homo sapiens, UniProt Q9Y2T5). Kind of assay: HTRF cAMP assay, GPR52 activity (Example A). Conditions: for EC50: average EC50 (n=1 to 15), Flp-In-CHO cells stably expressing recombinant human GPR52, cAMP HTRF, read-out: EC50 (N=); for Emax: maximum cAMP at 10 μM or 31.6 μM test compound, as percentage of Emax of control compound 4-(3-(3-fluoro-5-(trifluoromethyl)benzyl)-5-methyl-4,5-dihydro-1H-1,2,4-triazol-1-yl)-2-methylbenzamide. The class given is cell-based. The procedure: Compounds of Formula I were assessed for their ability to modulate GPR52 activity. HTRF CAMP assays were performed using a commercially available assay kit (CAMP Gs HiRange HTRF®, CisBio). Controls and compounds were solubilized in DMSO and 62.5 nanoliters of the diluted compounds were transferred into 384-well NBS assay plates via acoustic or precision low-volume dispensing. Compounds were further diluted to 1× with the addition of 20,000 cells per well. Flp-In™—CHO cells that stably express recombinant human GPR52 were used in the assay.
Cells were harvested with cell stripper and resuspended in stimulation buffer. After thirty minutes incubation at room temperature, detection reagents were added to each well. Plates were then incubated for an additional 30 minutes at room temperature. CAMP produced by the cells during the first incubation period competes with d2-labeled CAMP for binding to an anti-cAMP monoclonal antibody labeled with europium cryptate. The measured signal was inversely proportional to the concentration of cAMP produced by the cells and this signal was quantified using a PHERAstar® multi-mode plate reader.
Dose-response curves were generated from the HTRF counts that have been transformed based on a CAMP referenced curve, and then normalized to the positive control. EC50 values were obtained using a nonlinear regression curve-fitting program. […] The Emax (Table 13) is the maximum amount of cAMP (nM) produced by incubation of the cells with 10 μM or 31.6 μM of a test compound. The compound is defined by the top plateau of the sigmoid curve fit. The curve is then normalized to a control compound, in this case 4-(3-(3-fluoro-5-(trifluoromethyl)benzyl)-5-methyl-4,5-dihydro-1H-1,2,4-triazol-1-yl)-2-methylbenzamide (Tokumaru, K., et al., “Design, synthesis, and pharmacological evaluation of 4-azolyl-benzamide derivatives as novel GPR52 agonists”, Bioorganic & Medicinal Chemistry, Volume 25, Issue 12, June 2017, pages 3098-3115), and expressed as a percentage of the Emax of that control compound.

Chain of recombinant human GPR52 (Q9Y2T5 whole entry): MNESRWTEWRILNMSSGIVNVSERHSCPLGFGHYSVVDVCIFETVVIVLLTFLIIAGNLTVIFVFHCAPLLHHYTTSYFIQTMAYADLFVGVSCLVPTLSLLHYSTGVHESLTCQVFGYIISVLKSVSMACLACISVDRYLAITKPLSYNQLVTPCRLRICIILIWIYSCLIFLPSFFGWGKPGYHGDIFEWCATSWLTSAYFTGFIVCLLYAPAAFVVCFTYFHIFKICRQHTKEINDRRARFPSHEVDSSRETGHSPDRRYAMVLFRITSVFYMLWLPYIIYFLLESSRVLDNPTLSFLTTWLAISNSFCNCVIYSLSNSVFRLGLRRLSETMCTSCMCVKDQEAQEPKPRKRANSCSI

In the case of `Cc1cc(-c2cc(Oc3cc(F)c4cnn(C)c4c3)ccn2)ccc1C(N)=O` [Example 39, 4-(4-((4-fluoro-1-methyl-1H-indazol-6-yl)oxy)pyridin-2-yl)-2-methylbenzamide], the 50% effective concentration (EC50) fell in the range of 25 to 100 nM and the Emax stood at 104%.

Regarding `Cc1cc(-c2cc(Oc3ccc4c(c3)c(F)nn4C)ccn2)ccc1C(N)=O` [Example 129, 4-(4-((3-fluoro-1-methyl-1H-indazol-5-yl)oxy)pyridin-2-yl)-2-methylbenzamide], the EC50 lay within 101 to 1000 nM and the maximum response (Emax) was found to be 126%.

On to `CCc1cc(-c2cc(Oc3cnc4c(Cl)cccc4c3)ccn2)ccc1C(N)=O` [Example 112, 4-(4-((8-chloroquinolin-3-yl)oxy)pyridin-2-yl)-2-ethylbenzamide], for which the half-maximal effective concentration (EC50) is 101 to 1000 nM and the maximal response (Emax) was found to be 100%.

As for `CCc1cc(-c2cc(Oc3cnc4c(C)nn(C)c4c3)cc3nccn23)ccc1C(N)=O` [Example 81, 4-(7-((1,3-dimethyl-1H-pyrazolo[4,3-b]pyridin-6-yl)oxy)imidazo[1,2-a]pyridin-5-yl)-2-ethylbenzamide], the concentration giving a half-maximal response (EC50) fell in the range of 101 to 1000 nM and the Emax came out at 76%.

Take `CCc1cc(-c2cc(Oc3cnc4c(c3)c(C)nn4C)cc3nccn23)ccc1C(N)=O` [Example 78, 4-(7-((1,3-dimethyl-1H-pyrazolo[3,4-b]pyridin-5-yl)oxy)imidazo[1,2-a]pyridin-5-yl)-2-ethylbenzamide]: the EC50 was 101 to 1000 nM and the Emax came to 94%.

For `CCc1cc(-c2cc(Oc3ccc4c(C)nn(C)c4c3)ccn2)ccc1C(N)=O` [Example 53, 4-(4-((1,3-dimethyl-1H-indazol-6-yl)oxy)pyridin-2-yl)-2-ethylbenzamide], the EC50 fell in the range of 25 to 100 nM and the Emax was found to be 105%.

`Cc1cc(-c2cc(Oc3ccc4ncccc4c3)ccn2)ccc1C(N)=O` [Example 74, 2-methyl-4-(4-(quinolin-6-yloxy)pyridin-2-yl)benzamide]: the EC50 lay within 101 to 1000 nM and the maximal response (Emax) was found to be 95%.

As to `Cc1cc(-c2cc(Oc3cccc4occc34)ccn2)ccc1C(N)=O` [Example 90, 4-(4-(benzofuran-4-yloxy)pyridin-2-yl)-2-methylbenzamide], the concentration for a half-maximal effect (EC50) was 1000 to 2000 nM and the Emax came out at 107%.

Consider `CCc1cc(-c2cc(Oc3cc(F)c4cnn(C)c4c3)ccn2)ccc1C(N)=O` [Example 36, 2-ethyl-4-(4-((4-fluoro-1-methyl-1H-indazol-6-yl)oxy)pyridin-2-yl)benzamide], for which the half-maximal effective concentration (EC50) was less than 25 nM and the maximal response (Emax) turned out to be 105%.

For `Cn1ncc2ccc(Oc3ccnc(-c4ccc(C(N)=O)c(Cl)c4)c3)cc21` [Example 45, 2-chloro-4-(4-((1-methyl-1H-indazol-6-yl)oxy)pyridin-2-yl)benzamide], the EC50 lay within 101 to 1000 nM and the Emax worked out at 88%.

Regarding `NC(=O)c1ccc(-c2cc(Oc3ccc4ncccc4c3)ccn2)cc1C(F)(F)F` [Example 75, 4-(4-(quinolin-6-yloxy)pyridin-2-yl)-2-(trifluoromethyl)benzamide], the EC50 lay in the range of 101 to 1000 nM and the maximum response (Emax) was determined as 101%.

For `CCc1cc(-c2cc(Oc3cnc4c(c3)c(C(F)(F)F)nn4C)ccn2)ccc1C(N)=O` [Example 56, 2-ethyl-4-(4-((1-methyl-3-(trifluoromethyl)-1H-pyrazolo[3,4-b]pyridin-5-yl)oxy)pyridin-2-yl)benzamide], the half-maximal effective concentration (EC50) is 25 to 100 nM and the Emax amounted to 100%.

Regarding `Cc1cc(-c2cc(Oc3cnc4c(c3)c(C)nn4C)ccn2)ccc1C(N)=O` [Example 54, 4-(4-((1,3-dimethyl-1H-pyrazolo[3,4-b]pyridin-5-yl)oxy)pyridin-2-yl)-2-methylbenzamide], the concentration giving a half-maximal response (EC50) was 101 to 1000 nM and the Emax was 110%.

As for `Cc1cc(-c2cc(Oc3cc(F)c4ncccc4c3)ccn2)ccc1C(N)=O` [Example 98, 4-(4-((8-fluoroquinolin-6-yl)oxy)pyridin-2-yl)-2-methylbenzamide], the concentration giving a half-maximal response (EC50) was in the range of 101 to 1000 nM and the Emax is 120%.

As for `CCc1cc(-c2cc(Oc3cc(C)c4cnn(C)c4c3)ccn2)ccc1C(N)=O` [Example 46, 4-(4-((1,4-dimethyl-1H-indazol-6-yl)oxy)pyridin-2-yl)-2-ethylbenzamide], the half-maximal effective concentration (EC50) was 101 to 1000 nM and the Emax was determined as 63%.

Turning to `Cc1cc(-c2cc(Oc3ccc4c(c3)NCCO4)ccn2)ccc1C(N)=O` [Example 69, 4-(4-((3,4-dihydro-2H-benzo[b][1,4]oxazin-6-yl)oxy)pyridin-2-yl)-2-methylbenzamide], the EC50 was less than 25 nM and the maximal effect (Emax) is 119%.

As to `Cc1cc(-c2cc(Oc3cnc4cnn(C)c4c3)ccn2)ccc1C(N)=O` [Example 12, 2-methyl-4-(4-((1-methyl-1H-pyrazolo[4,3-b]pyridin-6-yl)oxy)pyridin-2-yl)benzamide], the EC50 lay in the range of 101 to 1000 nM and the Emax amounted to 103%.

Regarding `Cc1nn(C)c2cc(Oc3ccnc(-c4ccc(C(N)=O)c(C(F)(F)F)c4)c3)ccc12` [Example 42, 4-(4-((1,3-dimethyl-1H-indazol-6-yl)oxy)pyridin-2-yl)-2-(trifluoromethyl)benzamide], the EC50 was in the range of 101 to 1000 nM and the maximal response (Emax) came out at 83%.

Turning to `Cc1nn(C)c2cc(Oc3ccnc(-c4ccc(C(N)=O)c(C(F)(F)F)c4)c3)cnc12` [Example 30, 4-(4-((1,3-dimethyl-1H-pyrazolo[4,3-b]pyridin-6-yl)oxy)pyridin-2-yl)-2-(trifluoromethyl)benzamide], the EC50 lay in the range of 1000 to 2000 nM and the maximum response (Emax) turned out to be 87%.

For `CCc1cc(-c2cc(Oc3cnc4c(C)nn(C)c4c3)ccn2)cc(F)c1C(N)=O` [Example 34, 4-(4-((1,3-dimethyl-1H-pyrazolo[4,3-b]pyridin-6-yl)oxy)pyridin-2-yl)-2-ethyl-6-fluorobenzamide], the concentration giving a half-maximal response (EC50) fell in the range of 1000 to 2000 nM and the maximal response (Emax) came out at 77%.

On to `CCc1cc(-c2cc(Oc3cnc4c(C(F)(F)F)nn(C)c4c3)ccn2)ccc1C(N)=O` [Example 29, 2-ethyl-4-(4-((1-methyl-3-(trifluoromethyl)-1H-pyrazolo[4,3-b]pyridin-6-yl)oxy)pyridin-2-yl)benzamide], for which the concentration giving a half-maximal response (EC50) was in the range of 101 to 1000 nM and the Emax was 84%.

For the compound `CCc1cc(-c2cc(Oc3ccc4nccnc4c3)ccn2)ccc1C(N)=O` [Example 125, 2-ethyl-4-(4-(quinoxalin-6-yloxy)pyridin-2-yl)benzamide], the EC50 lay within 101 to 1000 nM and the Emax is 90%.

On to `Cc1cc(-c2cc(Oc3ccc4cnccc4c3)ccn2)ccc1C(N)=O` [Example 93, 4-(4-(isoquinolin-6-yloxy)pyridin-2-yl)-2-methylbenzamide], for which the concentration giving a half-maximal response (EC50) fell in the range of 101 to 1000 nM and the maximal effect (Emax) came out at 118%.

`CCc1cc(-c2cc(Oc3cnc4c(F)cccc4c3)ccn2)ccc1C(N)=O` [Example 102, 2-ethyl-4-(4-((8-fluoroquinolin-3-yl)oxy)pyridin-2-yl)benzamide]: the EC50 fell in the range of 101 to 1000 nM and the Emax was 90%.

As for `Cc1cc(-c2cc(Oc3cnc4c(F)nn(C)c4c3)ccn2)ccc1C(N)=O` [Example 127, 4-(4-((3-fluoro-1-methyl-1H-pyrazolo[4,3-b]pyridin-6-yl)oxy)pyridin-2-yl)-2-methylbenzamide], the EC50 fell in the range of 101 to 1000 nM and the Emax was 116%.

Turning to `CCc1cc(-c2cccc(Oc3ccc4cnn(C)c4c3)c2)ccc1C(=O)NC` [Example 65, 3-ethyl-N-methyl-3′-((1-methyl-1H-indazol-6-yl)oxy)-[1,1′-biphenyl]-4-carboxamide], the concentration giving a half-maximal response (EC50) fell in the range of 1000 to 2000 nM and the Emax was found to be 83%.

Turning to `NC(=O)c1ccc(-c2cc(Oc3ccc4ncccc4c3)ccn2)cc1Cl` [Example 76, 2-chloro-4-(4-(quinolin-6-yloxy)pyridin-2-yl)benzamide], the EC50 lay in the range of 101 to 1000 nM and the maximal response (Emax) stood at 91%.

Regarding `CCc1cc(-c2cc(Oc3cnc4c(c3)c(F)nn4C)ccn2)ccc1C(N)=O` [Example 130, 2-ethyl-4-(4-((3-fluoro-1-methyl-1H-pyrazolo[3,4-b]pyridin-5-yl)oxy)pyridin-2-yl)benzamide], the concentration for a half-maximal effect (EC50) was in the range of 101 to 1000 nM and the Emax worked out at 137%.

Take `Cc1cc(-c2cc(Oc3cccc4c3cnn4C)ccn2)ccc1C(N)=O` [Example 7, 2-methyl-4-(4-((1-methyl-1H-indazol-4-yl)oxy)pyridin-2-yl)benzamide]: the EC50 fell in the range of 1000 to 2000 nM and the Emax was determined as 68%.

For `Cn1ncc2ncc(Oc3ccnc(-c4ccc(C(N)=O)c(C(F)(F)F)c4)c3)cc21` [Example 33, 4-(4-((1-methyl-1H-pyrazolo[4,3-b]pyridin-6-yl)oxy)pyridin-2-yl)-2-(trifluoromethyl)benzamide], the EC50 was 101 to 1000 nM and the Emax is 90%.
